The text below walks through data of ChEMBL document CHEMBL1149697, “Identification of dissociated non-steroidal glucocorticoid receptor agonists” (Bioorg Med Chem Lett, 2007).

The structures appear in SMILES notation.

In assay [1] the test system is HFF. Kind of assay: Antiinflammatory activity assessed as inhibition of IL1 stimulated IL6 production in HFF cells by transrepression assay. It is filed as functional, cell-based. The note with it: Homo sapiens.
In assay [2] the test system is HFF. Kind of assay: Antiinflammatory activity assessed as inhibition of IL6 production in HFF cells by transrepression assay relative to dexamethasone. It is filed as functional, Homo sapiens.
Assay [3] relates to HFF. Briefly: Antiinflammatory activity assessed as upregulation of aromatase in HFF cells by transactivation assay. The note with it: Homo sapiens. It is filed as functional, cell-based.
Assay [4] deals with HFF. Kind of assay: Antiinflammatory activity assessed as upregulation of aromatase in HFF cells by transactivation assay relative to dexamethasone. The assay is classed as functional, Homo sapiens. Further details: concentration or dose not given beside the values.
The species entered for the next assay is Homo sapiens. Briefly: Selectivity ratio of human GR over human PR.
The next assay addresses T1, Glucocorticoid receptor (Homo sapiens, UniProt P04150).
T1 sequence (P04150 whole entry): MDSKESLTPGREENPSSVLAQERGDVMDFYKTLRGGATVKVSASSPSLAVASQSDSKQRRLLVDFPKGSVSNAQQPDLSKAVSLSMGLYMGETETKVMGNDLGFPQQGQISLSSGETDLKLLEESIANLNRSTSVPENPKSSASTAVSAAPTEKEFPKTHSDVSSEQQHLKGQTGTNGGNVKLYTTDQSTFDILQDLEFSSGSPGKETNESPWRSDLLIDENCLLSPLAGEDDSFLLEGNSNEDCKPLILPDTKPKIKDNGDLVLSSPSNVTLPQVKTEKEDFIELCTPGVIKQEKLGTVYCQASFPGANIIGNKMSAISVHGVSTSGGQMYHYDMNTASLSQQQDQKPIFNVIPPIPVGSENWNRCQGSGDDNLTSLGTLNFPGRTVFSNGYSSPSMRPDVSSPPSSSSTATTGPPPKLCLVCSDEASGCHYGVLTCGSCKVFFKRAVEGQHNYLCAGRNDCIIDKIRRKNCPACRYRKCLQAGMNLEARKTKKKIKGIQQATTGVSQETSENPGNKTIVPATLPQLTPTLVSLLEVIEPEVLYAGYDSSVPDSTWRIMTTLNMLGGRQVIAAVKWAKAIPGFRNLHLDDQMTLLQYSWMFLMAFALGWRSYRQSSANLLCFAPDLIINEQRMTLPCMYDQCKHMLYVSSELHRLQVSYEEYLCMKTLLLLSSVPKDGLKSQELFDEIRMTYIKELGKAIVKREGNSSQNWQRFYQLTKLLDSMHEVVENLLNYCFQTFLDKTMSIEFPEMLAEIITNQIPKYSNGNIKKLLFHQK

In a further assay the target is T2, Progesterone receptor (Homo sapiens, UniProt P06401).
T2 sequence (P06401 whole entry): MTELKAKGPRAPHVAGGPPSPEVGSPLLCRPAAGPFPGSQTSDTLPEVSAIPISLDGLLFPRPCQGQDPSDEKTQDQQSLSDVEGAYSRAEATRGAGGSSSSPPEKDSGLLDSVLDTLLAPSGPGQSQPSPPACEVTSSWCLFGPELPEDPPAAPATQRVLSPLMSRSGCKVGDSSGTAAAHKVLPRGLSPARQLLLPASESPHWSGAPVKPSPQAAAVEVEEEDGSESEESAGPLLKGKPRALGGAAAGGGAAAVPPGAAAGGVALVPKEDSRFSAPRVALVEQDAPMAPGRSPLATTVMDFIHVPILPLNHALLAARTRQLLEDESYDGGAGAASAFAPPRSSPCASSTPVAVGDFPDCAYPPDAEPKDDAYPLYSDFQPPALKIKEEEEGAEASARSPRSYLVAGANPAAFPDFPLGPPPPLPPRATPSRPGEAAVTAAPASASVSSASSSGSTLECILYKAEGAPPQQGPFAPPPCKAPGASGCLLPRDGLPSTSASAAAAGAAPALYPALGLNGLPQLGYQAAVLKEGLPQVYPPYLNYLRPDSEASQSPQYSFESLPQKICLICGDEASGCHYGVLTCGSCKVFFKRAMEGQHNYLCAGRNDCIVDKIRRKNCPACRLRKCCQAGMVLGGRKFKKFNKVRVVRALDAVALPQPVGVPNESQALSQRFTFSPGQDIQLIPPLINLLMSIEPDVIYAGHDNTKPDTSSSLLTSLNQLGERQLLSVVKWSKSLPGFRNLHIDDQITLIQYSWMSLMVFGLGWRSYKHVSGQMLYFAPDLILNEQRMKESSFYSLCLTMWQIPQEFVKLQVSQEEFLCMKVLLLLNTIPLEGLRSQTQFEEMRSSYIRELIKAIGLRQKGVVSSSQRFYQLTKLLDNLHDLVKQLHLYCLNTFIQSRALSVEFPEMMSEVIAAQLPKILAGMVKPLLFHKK
Kind of assay: Displacement of TAMRA labeled mifepristone at human progesterone receptor in insect cell.

For assay [5], the target named is T3, Mineralocorticoid receptor (Homo sapiens, UniProt P08235).
T3 sequence (P08235 whole entry): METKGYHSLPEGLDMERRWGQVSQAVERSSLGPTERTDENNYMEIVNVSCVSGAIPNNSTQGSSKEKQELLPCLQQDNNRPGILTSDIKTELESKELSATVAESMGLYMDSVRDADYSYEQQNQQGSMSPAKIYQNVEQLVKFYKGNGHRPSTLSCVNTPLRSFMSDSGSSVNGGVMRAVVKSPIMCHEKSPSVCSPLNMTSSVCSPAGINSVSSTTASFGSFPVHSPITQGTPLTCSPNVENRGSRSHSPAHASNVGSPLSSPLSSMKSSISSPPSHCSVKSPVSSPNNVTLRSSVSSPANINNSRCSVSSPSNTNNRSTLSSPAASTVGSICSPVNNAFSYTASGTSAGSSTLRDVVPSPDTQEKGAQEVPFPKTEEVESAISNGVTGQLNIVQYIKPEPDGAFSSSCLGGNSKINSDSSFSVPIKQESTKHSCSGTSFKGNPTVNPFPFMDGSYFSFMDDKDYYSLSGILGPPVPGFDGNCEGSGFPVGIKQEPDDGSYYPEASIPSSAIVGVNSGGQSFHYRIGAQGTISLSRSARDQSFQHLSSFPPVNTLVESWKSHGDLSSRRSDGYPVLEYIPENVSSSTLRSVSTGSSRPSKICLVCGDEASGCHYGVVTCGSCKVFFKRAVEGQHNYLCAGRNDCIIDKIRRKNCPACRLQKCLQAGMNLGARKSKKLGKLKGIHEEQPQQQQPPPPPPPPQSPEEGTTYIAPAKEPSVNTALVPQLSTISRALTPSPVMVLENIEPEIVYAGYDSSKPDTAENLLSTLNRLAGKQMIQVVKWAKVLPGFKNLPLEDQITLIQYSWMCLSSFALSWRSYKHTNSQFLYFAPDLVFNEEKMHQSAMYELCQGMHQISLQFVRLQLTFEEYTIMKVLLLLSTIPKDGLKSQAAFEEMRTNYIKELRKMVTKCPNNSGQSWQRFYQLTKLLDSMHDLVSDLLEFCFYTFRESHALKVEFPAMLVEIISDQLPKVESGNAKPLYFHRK
Briefly: Displacement of TAMRA labeled dexamethasone at human mineralocorticoid receptor in insect cell.

Regarding `COc1ccc(F)cc1C(C)(C)CC(O)(Cc1cc(C)c(C#N)c(C)c1)C(F)(F)F` (stereo not drawn), the EC50 was determined as 4 nM in the assay with HFF [1] and 8 nM in the assay with HFF [3]. For the same molecule, the Efficacy in the assay on HFF [2] came to 95%. Further, the Activity with HFF [4] worked out at 115%. Besides, the Ratio IC50 in the assay listed under Homo sapiens turned out to be 35. Besides, the IC50 amounted to 11 nM on Glucocorticoid receptor, 390 nM on Progesterone receptor and 300 nM in assay [5].

For the molecule `COc1ccc(F)cc1C(C)(C)CC(O)(Cc1cc(C)cc(Cl)c1)C(F)(F)F` (stereo not drawn), the EC50 in the assay with HFF [1] was 125 nM; in the assay with HFF [3] it was 245 nM. Moreover, in the assay on HFF [2], the Efficacy turned out to be 79%. Besides, in the assay with HFF [4], the Activity came out at 80%. The IC50 on Glucocorticoid receptor is 46 nM; on Progesterone receptor, > 2000 nM; in assay [5] it was 940 nM.

Consider `COc1ccc(F)cc1C(C)(C)CC(O)(Cc1cc(C)cc(C)c1C#N)C(F)(F)F` (stereo not drawn), for which the values for the EC50 in the assay with HFF [1] and with HFF [3] were 40 nM and 250 nM, respectively. For the same molecule, in the assay with HFF [2], the Efficacy came to 83%. For the same molecule, in the assay on HFF [4], the Activity is recorded as 75%. For the same molecule, in the assay listed under Homo sapiens, the Ratio IC50 worked out at 225. Besides, the concentration for half-maximal inhibition (IC50) at Glucocorticoid receptor came out at 8 nM; on Progesterone receptor, 1800 nM; in assay [5] it was 250 nM.

`COc1ccc(F)cc1C(C)(C)CC(O)(Cc1ccc(C#N)cc1F)C(F)(F)F` (stereo not drawn): the EC50 in the assay on HFF [1] was > 2000 nM; in the assay on HFF [3], 660 nM. Besides, the Efficacy in the assay on HFF [2] amounted to 40%. The Activity in the assay on HFF [4] was determined as 15%. In addition, the IC50 against Glucocorticoid receptor stood at 22 nM; at Progesterone receptor it was 280 nM; in assay [5], 500 nM.

`COc1ccc(F)cc1C(C)(C)CC(O)(Cc1cc(C)cc(C)c1)C(F)(F)F` (stereo not drawn): the EC50 came to 280 nM in the assay on HFF [1] and 285 nM in the assay on HFF [3]. Besides, in the assay on HFF [2], the Efficacy is listed as 55%. Also, the Activity with HFF [4] is 80%. Besides, the IC50 against Glucocorticoid receptor is 55 nM; at Progesterone receptor, > 354 nM; in assay [5] it was 220 nM.

`COc1ccc(F)cc1C(C)(C)CC(O)(Cc1cc(Cl)cc(C#N)c1)C(F)(F)F` (stereo not drawn): the results for the EC50 in the assay on HFF [1] and with HFF [3] were > 2000 nM and 4750 nM, respectively. For the same molecule, the Efficacy with HFF [2] worked out at 46%. Also, the Activity with HFF [4] is on record as 53%. For the same molecule, the IC50 on Glucocorticoid receptor is 27 nM; at Progesterone receptor it was > 2000 nM; in assay [5], 730 nM.

`COc1ccc(F)cc1C(C)(C)CC(O)(Cc1ccc(C#N)c2ccccc12)C(F)(F)F` (stereo not drawn): the values for the EC50 with HFF [1] and in the assay on HFF [3] were 70 nM and 260 nM, respectively. For the same molecule, the Efficacy in the assay on HFF [2] is reported as 92%. Besides, the Activity with HFF [4] was determined as 103%. The results for the IC50 (on Glucocorticoid receptor; at Progesterone receptor; in assay [5]) were 21 nM, 325 nM and 430 nM, respectively.

Turning to `COc1ccc(F)cc1C(C)(C)CC(O)(Cc1ccc(C#N)cc1Cl)C(F)(F)F` (stereo not drawn), the half-maximal effective concentration (EC50) in the assay on HFF [1] came to 20 nM; in the assay on HFF [3], 30 nM. In the assay with HFF [2], the Efficacy was found to be 60%. In addition, in the assay with HFF [4], the Activity was found to be 20%. The values for the IC50 (at Glucocorticoid receptor; on Progesterone receptor; in assay [5]) were 17 nM, 140 nM and 320 nM, respectively.

The EC50 is the concentration needed to bring the measured effect to its halfway point. The term IC50 denotes the concentration that inhibits the measured activity by half.
